Test results as given in patent US8937089B2, “Synergistic mixtures of anthranilamide invertebrate pest control agents” (priority 2004, dated 2015).
Like-named read-outs stand apart in the source and are kept apart here.

What was measured:
Assay in all cases: whole plant or invertebrate
Type in all cases: in vivo
[1] = test system: corn planthopper (Peregrines maidis)
Method in brief: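 Compounds in 10% acetone/90% water with 300 ppm X-77 surfactant sprayed (3 replications) onto 3- to 4-day-old corn plants, dried 1 h, then infested with 10–20 corn planthopper nymphs aged 18–20 days. Held 6 days at 19-21° C. and 50-70% relative humidity; contact and/or systemic control assessed.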

[2] = test system: western flower thrip (Frankliniella occidentalis Pergande)
Method in brief: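 Compounds in 10% acetone/90% water with 300 ppm non-ionic surfactant were sprayed onto 5- to 7-day-old bean plants, 3 replicates. After 1 h drying, 22–27 adult thrips were added per unit. Units were held 7 days at 25° C, 45–55% RH, assessing contact and/or systemic control.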

[3] = test system: potato leafhopper (Empoasca fabae Harris)
Method in brief: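 Bean plants (5–6 days old, one primary leaf excised) were sprayed with 1 mL of compound in 10% acetone/water with 300 ppm X-77 surfactant, 3 replicates. After drying for 1 h, each unit was infested with 5 adult leafhoppers. Units were held 6 days at 19–21 °C and 50–70% RH.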

[4] = test system: cotton melon aphid (Aphis gossypii Glover)
Method in brief: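 Cotton plants (6–7 days old) pre-infested with 30–40 aphids by cut-leaf method, sprayed with compound (ppm) in 10% acetone/90% water with 300 ppm X-77 surfactant, three replicates. Held 6 days at 19–21 °C, 50–70% RH; contact and/or systemic control assessed.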

[5] = test system: green peach aphid (Myzus persicae Sulzer)
Method in brief: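 Compounds formulated in 10% acetone/water with 300 ppm X-77 surfactant were atomized onto aphid-infested radish seedlings, with three replicates per treatment. Infestation was 30–40 aphids transferred on excised leaf pieces, covering contact and systemic exposure. Test units stayed 6 days in a growth chamber at 19–21 °C and 50–70% relative humidity.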

[6] = test system: silverleaf whitefly (Bemisia argentifolii Bellows and Perring)
Method in brief: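 Whitefly-egg-infested 12–14-day-old cotton plants sprayed with compound in 10% acetone/90% water plus 300 ppm non-ionic surfactant, in triplicate. Plants then held 13 days at 28 °C and 50–70% relative humidity before mortality assessment.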

[7] = rate 1 ppm, single compound, spray, 7 days
[8] = rate 500 ppm, single compound, spray, 7 days

## CNC(=O)c1cc(Cl)cc(C)c1NC(=O)c1cc(Br)nn1-c1ncccc1Cl [Compound 1, 3-bromo-N-[4-chloro-2-methyl-6-[(methylamino)carbonyl]phenyl]-1-(3-chloro-2-pyridinyl)-1H-pyrazole-5-carboxamide]
[1]; Corn Plant Hopper, rate 20 ppm, read-out: % mortality (obs)
  mortality at 20 ppm: 15%
[1]; Corn Plant Hopper, rate 100 ppm, read-out: % mortality (obs)
  mortality at 100 ppm: 19%
[1]; Corn Plant Hopper, rate 500 ppm, read-out: % mortality (obs)
  mortality at 500 ppm: 28%
[1]; Table 5A, Compound 1 5 ppm, read-out: % Mortality (observed)
  mortality at 5 ppm: 6%
[1]; Table 5A, Compound 1 50 ppm, read-out: % Mortality (observed)
  mortality at 50 ppm: 9%
[1]; Table 5A, Compound 1 150 ppm, read-out: % Mortality (observed)
  mortality at 150 ppm: 28%
[2]; Frankliniella occidentalis, 168 h, rate 10 ppm, single compound, spray, 7 days, read-out: % mortality (obs)
  mortality at 10 ppm: 44%
[2]; Frankliniella occidentalis, 168 h, rate 50 ppm, single compound, spray, 7 days, read-out: % mortality (obs)
  mortality at 50 ppm: 49%
[2]; Frankliniella occidentalis, 168 h, rate 100 ppm, single compound, spray, 7 days, read-out: % mortality (obs)
  mortality at 100 ppm: 46%
[2]; Frankliniella occidentalis, Table 3A, Compound 1 8 ppm, read-out: % Mortality (observed)
  mortality at 8 ppm: 3%
[2]; Frankliniella occidentalis, Table 3A, Compound 1 25 ppm, read-out: % Mortality (observed)
  mortality at 25 ppm: 17%
[2]; Frankliniella occidentalis, Table 3A, Compound 1 81 ppm, read-out: % Mortality (observed)
  mortality at 81 ppm: 30%
[3]; Empoasca fabae, Table 4A, Compound 1 0.4 ppm, read-out: % Mortality (observed)
  mortality at 0.4 ppm: 0%
[3]; Empoasca fabae, Table 4A, Compound 1 1.4 ppm, read-out: % Mortality (observed)
  mortality at 1.4 ppm: 0%
[3]; Empoasca fabae, Table 4A, Compound 1 4.6 ppm, read-out: % Mortality (observed)
  mortality at 4.6 ppm: 0%
[3]; Empoasca fabae, rate 4 ppm, alone, read-out: % mortality (obs)
  mortality at 4 ppm: 23%
[3]; Empoasca fabae, rate 14 ppm, alone, read-out: % mortality (obs)
  mortality at 14 ppm: 37%
[3]; Empoasca fabae, rate 50 ppm, alone, read-out: % mortality (obs)
  mortality at 50 ppm: 54%
[4]; Aphis gossypii, Table 6A, Compound 1 0.8 ppm, read-out: % Mortality (observed)
  mortality at 0.8 ppm: 12%
[4]; Aphis gossypii, Table 6A, Compound 1 4.5 ppm, read-out: % Mortality (observed)
  mortality at […]: 32%
[4]; Aphis gossypii, Table 6A, Compound 1 25 ppm, read-out: % Mortality (observed)
  mortality at 25 ppm: 23%
[4]; Aphis gossypii, rate 4 ppm, read-out: % mortality (obs)
  mortality at 4 ppm: 25%
[4]; Aphis gossypii, rate 20 ppm, read-out: % mortality (obs)
  mortality at 20 ppm: 41%
[4]; Aphis gossypii, rate 100 ppm, read-out: % mortality (obs)
  mortality at 100 ppm: 49%
[5]; Myzus persicae, in Raphanus sativus, Green Peach Aphid, rate 10 ppm, read-out: % mortality (obs)
  mortality at 10 ppm: 24%
[5]; Myzus persicae, in Raphanus sativus, Green Peach Aphid, rate 20 ppm, read-out: % mortality (obs)
  mortality at 20 ppm: 35%
[5]; Myzus persicae, in Raphanus sativus, Green Peach Aphid, rate 40 ppm, read-out: % mortality (obs)
  mortality at 40 ppm: 36%
[5]; Myzus persicae, in Raphanus sativus, Table 7A, Compound 1 2.1 ppm, read-out: % Mortality (observed)
  mortality at 2.1 ppm: 5%
[5]; Myzus persicae, in Raphanus sativus, Table 7A, Compound 1 3.9 ppm, read-out: % Mortality (observed)
  mortality at 3.9 ppm: 2%
[5]; Myzus persicae, in Raphanus sativus, Table 7A, Compound 1 7.5 ppm, read-out: % Mortality (observed)
  mortality at […]: 6%
[6]; Bemisia argentifolii, in Gossypium hirsutum, Table 2A, Compound 1 8 ppm, read-out: % Mortality (observed)
  mortality at 8 ppm: 4%
[6]; Bemisia argentifolii, in Gossypium hirsutum, Table 2A, Compound 1 10 ppm, read-out: % Mortality (observed)
  mortality at 10 ppm: 1%
[6]; Bemisia argentifolii, in Gossypium hirsutum, Table 2B, rate 6 ppm, read-out: % mortality (obs)
  mortality at 6 ppm: 3%
[6]; Bemisia argentifolii, in Gossypium hirsutum, Table 2B, rate 8 ppm, read-out: % mortality (obs)
  mortality at 8 ppm: 3%
[6]; Bemisia argentifolii, in Gossypium hirsutum, Table 2B, rate 10 ppm, read-out: % mortality (obs)
  mortality at 10 ppm: 5%

## COC(=O)N(C(=O)N1CO[C@@]2(C(=O)OC)Cc3cc(Cl)ccc3C2=N1)c1ccc(OC(F)(F)F)cc1 [Indoxacarb]
[1]; Corn Plant Hopper, rate 50 ppm
  % mortality (obs): 3%
[1]; Corn Plant Hopper, rate 500 ppm
  % mortality (obs): 4%
[1]; Corn Plant Hopper, rate 3000 ppm
  % mortality (obs): 18%
[2]; [7]
  % mortality (obs): 50%
[2]; [8]
  % mortality (obs): 50%
[2]; rate 3000 ppm, single compound, spray, 7 days
  % mortality (obs): 50%
[3]; rate 0.5 ppm, alone
  % mortality (obs): 33%
[3]; rate 1 ppm, alone
  % mortality (obs): 20%
[3]; rate 2 ppm, alone
  % mortality (obs): 27%
[4]; rate 10 ppm
  % mortality (obs): 16%
[4]; rate 20 ppm
  % mortality (obs): 28%
[4]; rate 30 ppm
  % mortality (obs): 34%
[5]; Green Peach Aphid, rate 10 ppm
  % mortality (obs): 9%
[5]; Green Peach Aphid, rate 20 ppm
  % mortality (obs): 7%
[5]; Green Peach Aphid, rate 30 ppm
  % mortality (obs): 8%
[6]; Table 2B, rate 1 ppm
  % mortality (obs): 0%
[6]; Table 2B, rate 3 ppm
  % mortality (obs): 0%
[6]; Table 2B, rate 10 ppm
  % mortality (obs): 0%

## CNC(=O)O/N=C(\SC)C(=O)N(C)C [Oxamyl]
[1]; Corn Plant Hopper, rate 0.08 ppm
  % mortality (obs): 2%
[1]; Corn Plant Hopper, rate 0.16 ppm
  % mortality (obs): 5%
[1]; Corn Plant Hopper, rate 0.2 ppm
  % mortality (obs): 6%
[2]; [7]
  % mortality (obs): 30%
[2]; rate 50 ppm, single compound, spray, 7 days
  % mortality (obs): 40%
[2]; [8]
  % mortality (obs): 100%
[3]; rate 0.1 ppm, alone
  % mortality (obs): 20%
[3]; rate 2 ppm, alone
  % mortality (obs): 20%
[3]; rate 100 ppm, alone
  % mortality (obs): 100%
[4]; rate 1 ppm
  % mortality (obs): 29%
[4]; rate 10 ppm
  % mortality (obs): 37%
[4]; rate 1000 ppm
  % mortality (obs): 100%
[5]; Green Peach Aphid, rate 40 ppm
  % mortality (obs): 8%
[5]; Green Peach Aphid, rate 70 ppm
  % mortality (obs): 18%
[5]; Green Peach Aphid, rate 100 ppm
  % mortality (obs): 35%
[6]; Table 2B, rate 0.1 ppm
  % mortality (obs): 2%
[6]; Table 2B, rate 0.3 ppm
  % mortality (obs): 0%
[6]; Table 2B, rate 1 ppm
  % mortality (obs): 1%
